Experimental data from patent publication US6699850B2, “Compositions and methods for inhibiting bone resorption” (Merck & Co., Inc., priority 1998, dated 2004).

How the values were obtained:
[1] = test system: 34 kDa Mst Kinase fragment; assay: In-gel kinase assay of Mst kinase activities in cultured osteoclast-like cells; format: cell-based, Murine; conditions: for activation of the 34 kDa Mst Kinase fragment: osteoclast like cells; for blocking of activation of Mst1 cleavage by alendronate monosodium trihydrate: FIG. 5 lanes 3 and 4, 10 μM isoprenoid with 30 μM alendronate monosodium trihydrate
Method: (§1) Murine co-cultures of osteoblasts and marrow cells are prepared using the methods of Wesolowski, et al., Exp Cell Res, (1995), 219, pp. 679-686, which is incorporated by reference herein in its entirety. Bone marrow cells are harvested from 6-week-old male Balb/C mice by flushing marrow spaces of freshly isolated long bones (tibiae and femora) with α-MEM (minimal essential media) containing penicillin/streptomycin (100 I.U./ml of each and 20 mM Hepes buffer). The bone marrow cells are suspended in α-MEM and the cells are filtered through an approximately 70 μm cell strainer. The filtrate is centrifuged at about 300×g for about 7 minutes. The resulting pellet is resuspended in α-MEM supplemented with fetal calf serum (10% v/v) and 10 nM 1, 25-(OH)2 vitamin D3. These bone marrow isolates are added to sub-confluent monolayers of osteoblastic MB 1.8 cells in cell culture plates and cultured for 7 days at 37 °C. in the presence of 5% CO2. Culture media is replenished ever other day. Fusion of the osteoclast precursor cells from bone marrow (with each other) to form multinucleated osteoclast-like cells typically occurs after about 7 days. Osteoclast-like cells are enriched by sequential treatment with collagenase (1 mg/mL in phosphate buffered saline) for one hour at 37° C. and EDTA (0.2 g/L in phosphate buffered saline) for 20 min at 37° C. Non-adherent cells are rinsed away by washing with phosphate buffered saline. Osteoclast-like cells which are resistant to the sequential treatments are present at about 95% purity and are maintained in α-MEM supplemented with fetal calf serum (10% v/v), 10 nM 1,25-(OH)2 vitamin D3, macrophage-colony-stimulating factor (5 ng/mL).
The compounds to be evaluated are prepared as a solution of the desired concentration in α-MEM. Examples of compounds that can be evaluated include nitrogen-containing bisphosphonates such as alendronate monosodium trihydrate, as well as compounds that block the effects of these inhibitors, such as isoprenoid compounds, for example, geranylgeraniol, geranylgeranyl phosphate, geranylgeranyl pyrophosphate, geranylgeranyl acetate, geranylgeranyl propionate, geranylgeranyl benzoate, geranylgeranyl lactate, geranylgeranyl succinate, and geranylgeranyl glutarate. Combinations of compounds can also be evaluated. The solutions of the compounds to be evaluated are added to the cultures for a time period of 17-24 hours. No treatment controls (controls not treated with compounds) are prepared by adding equivalent volumes of α-MEM to the control dishes.
Cells are then harvested and Iysed in a HEPES (N-(2-hydroxyethyl)piperazine-N′-(2-ethansulfonic acid) or Tris buffer containing the following: β-glycerophosphate (50 mM); Na3VO4 (1 mM); NaF (1 mM); Microcystin LR (1 μM); leupeptin (10 μg/ml); aprotinin (10 μg/ml); phenylmethyl sulfonylfluoride (1 mM). Protein concentrations are determined for each lysate and 5-20 μg are loaded into each lane of a SDS-PAGE (sodium dodecyl sulfate-polyacrylamide gel electrophoresis) gel containing Myelin Basic Protein, or another kinase substrate, which has been polymerized into the gel at a concentration between 50-400 μg/ml. Molecular weight standards are also loaded into one or more lanes of the gels. In-gel kinase assays are run according to a standard procedure based on Kameshita and Fujisawa, 1989 (Anal. Biochem. 183:139-143) and of Gotoh et al., 1990 (Eur. J. Biochem. 193: 661-669), both references being incorporated by reference herein in their entirety. The proteins are electrophoresed in the above gels. The gels are then successively soaked in 50 mM HEPES, pH 7.6; 5 mM 2-mercaptoethanol and each of the following (for each wash): (a) 20% isopropanol; (b) no additions; (c) urea (6 M); (d) Urea (3 M); (e) Urea (0.75 M); and Tween 20 (0.05% vol:vol). Kinase reactions are then run by first soaking the gels in 20 mM HEPES, pH 7.6; 20 mM MgCl2; 2 mM DTT and then in the same buffer containing 0.02 M ATP (non-radioactive) with ca. 1000 cpm/pmol ^32P-γ-ATP. […]

osteoclast function = assay: Osteoclast cell cultures and bone resorption assays; format: cell-based; conditions: with a bisphosphonate such as alendronate monosodium trihydrate; no concentration stated
Method: The compounds are dosed both 5 and 6 days after establishing the culture, and the formation of 250 μm cells are counted using an inverted microscope with a 10×objective and quantitated versus a no treatment control.
as §1, with “Osteoclast-like cells are enriched by sequential treatment with collagenase (1 mg/mL in phosphate buffered saline) for one hour at 37° C. and EDTA (0.2 g/L in phosphate buffered saline) for 20 min at 37° C. Non-adherent cells are rinsed away by washing with phosphate buffered saline. Osteoclast-like cells which are resistant to the sequential treatments are present at about 95% purity and are maintained in α-MEM supplemented with fetal calf serum (10% v/v), 10 nM 1,25-(OH)2 vitamin D3, macrophage-colony-stimulating factor (5 ng/mL).” left out

Row | SMILES | activation of the 34 kDa Mst Kinase fragment ([1]; FIG. 2, 30 μM, about 17 hours) | activation of the 34 kDa Mst Kinase fragment ([1]; FIG. 2, 100 μM, about 17 hours) | blocking of activation of Mst1 cleavage by alendronate monosodium trihydrate [1] | also measured
1 | NCCCC(O)(P(=O)(O)O)P(=O)(O)O [alendronate monosodium trihydrate, 4-amino-1-hydroxybutylidene-1,1-bisphosphonic acid monosodium trihydrate] | activation | activation |  | activation of 34 kDa Mst Kinase fragment immunoprecipitated by anti-Mst and anti-Krs antibody cocktail ([1]; FIG. 1 lane 3, 30 μM, osteoclast-like cells, in-gel kinase assay after immunoprecipitation): activated; activation of the 34 kDa Mst Kinase fragment ([1]; FIG. 4 lane 2, 30 μM): activation; activation of Mst1 cleavage ([1]; FIG. 5 lane 2, 30 μM, myelin basic protein as substrate): activation of Mst1 cleavage
2 | CC(O)(P(=O)(O)O)P(=O)(O)O [etidronate disodium] | fail to activate | fail to activate |  | 
3 | CC(C)=CCCC(C)=CCCC(C)=CCO [farnesol] |  |  | partially blocked | 
4 | CC(C)=CCC/C(C)=C/CC/C(C)=C/CC/C(C)=C/CO [geranylgeraniol] |  |  | blocked | effect on activation of the 34 kDa Mst Kinase fragment by alendronate monosodium trihydrate ([1]; FIG. 4 lane 3, 10 μM geranylgeraniol with 30 μM alendronate monosodium trihydrate): negates this activation; effect on cleavage of Mst induced by bisphosphonates such as alendronate monosodium trihydrate ([1]; osteoclasts, no concentration stated): prevent the cleavage of Mst; effect on bisphosphonate-induced inhibition of osteoclast function (osteoclast function): block the inhibitory effect
5 | O=P(O)(O)C(Sc1ccc(Cl)cc1)P(=O)(O)O [tiludronate disodium] | fail to activate | fail to activate |  | 
